PMC9822434, “Estradiol-Based Salicylaldehyde (Thio)Semicarbazones and Their Copper Complexes with Anticancer, Antibacterial and Antioxidant Activities” (Molecules, 2022)
Where two headings read alike, the source gives them in different places.

Columns and labels:
[1] = DPPH free radical scavenging assay; details: for % Scavenging Effect: DPPH:compound = 1:1 ratio after 30 min, ethanol; for % Scavenging Effect / TEAC (Trolox equivalent antioxidant capacity): 25 °C; for IC50: in ethanol, T = 25 °C, cDPPH = 50 µM, ccompound = 5−50 µM; for TEAC (Trolox equivalent antioxidant capacity): DPPH assay in ethanol
Protocol: The DPPH (Sigma-Aldrich) free radical scavenging capacity was studied at 25.0 ± 0.1 °C on an Agilent Cary 3500 spectrophotometer with tightly closed tandem cuvette according to our approach with some modifications. The stock solution of DPPH (100 µM) was prepared in ethanol, and 0.5 mL of this solution was added to one pocket of the cuvette and 0.5 mL of the tested compound in different concentrations in ethanol was added to another. The final concentration of the studied compounds was in the range 5–50 µM, where for DPPH concentration, it was always 50 µM. A standard compound Trolox (Sigma-Aldrich) was used as a positive control. The percentage of the antioxidant activity (AA), IC50 values (the concentration of compound at which it reduced 50% of DPPH) and Trolox equivalent antioxidant capacity (TEAC) were calculated.

[2] = direct redox reaction of the Cu(II) complexes with GSH (UV–vis, anaerobic); type: physicochemical; details: Cu(II) complex (25 µM) of the named ligand with GSH (1.25 mM), pH 7.4, anaerobic, 30% (v/v) DMSO/H2O, 25.0 °C
Protocol: (§1) The redox reaction of the Cu(II) complexes with GSH and ascorbic acid was studied at 25.0 ± 0.1 °C, at pH 7.40 (10 mM HEPES with 0.1 M KCl) on an Agilent Cary 8454 diode array spectrophotometer using a special, tightly closed tandem cuvette (Hellma Tandem Cell, 238-QS). The complex and the reducing agent were separated until the reaction was triggered. Both isolated pockets of the tandem cuvette were completely deoxygenated by bubbling argon for 10 min before mixing the reactants. Spectra were recorded before and then immediately after the mixing, and changes were followed till no further absorbance change was observed. The stock solutions of the reducing agents and the complexes were freshly prepared every day.
During the calculations, the absorbance (A)−time (t) curves were fitted and analyzed at the λmax of the complex. (A0 − Afinal) × e ^(−a×t) + Afinal equation was used where A0, Afinal and a parameters were refined and accepted at the minimal value of the weighted sum of squared residuals (difference between the measured and calculated absorbance values) at the given wavelength. Then observed rate constants (kobs) of the redox reaction were obtained from the data points of the simulated absorbance–time curves as the slope of the ln(A/A0) versus t plots.

[3] = cyclic voltammetry of Cu(II)-(T)SC (1:1) systems; type: physicochemical; details: 90% (v/v) DMSO/H2O, pH 7.40 (10 mM HEPES), 10 mV/s, 25 °C, I = 0.1 M (nBu4NPF6)
Protocol: Cyclic voltammograms of TSCs derivatives and their Cu(II) complexes at 25.0 ± 0.1 °C were recorded. nBu4NPF6 was used as a supporting electrolyte, and measurements were performed at pH 7.4. The complexes were obtained by mixing the ligand dissolved in DMSO with aqueous solution of CuCl2 in 1:1 ratio. The final concentration of stock was 1 mM. Measurements were performed on a conventional three-electrode system under argon atmosphere using an Autolab PGSTAT 204 potentiostat/galvanostat monitored with Metrohm’s Nova software. Samples were purged for 10 min with argon before recording the cyclic voltammograms. Platinum electrode was used as the working and auxiliary electrode and Ag/AgCl/3 M KCl as the reference electrode. The electrochemical system was calibrated with an aqueous solution of K3[Fe(CN)6] (E1/2 = +0.458 V vs. NHE). Redox potentials were obtained at 10 mV/s scan rate in the range of −1.3 to +0.8 V.

[4] = system: S. aureus ATCC 25928; experiment: MIC determination; type: cell-based, Staphylococcus aureus; details: Gram-positive S. aureus ATCC 25928; Mueller Hinton Broth
Protocol: (§2) Klebsiella pneumoniae (ATCC 49619), Escherichia coli (ATCC 25922), Staphylococcus aureus (ATCC 25928) and Enterococcus faecalis (ATCC 29212) strains were used as Gram-negative and Gram-positive bacterial cultures. The stock solutions of the tested compounds (dissolved in 90% (v/v) DMSO/H2O at 10 mM concentration) were diluted in 100 μL of Mueller Hinton Broth, and then two-fold serial dilutions were performed. As a starting point, 100 μM concentration of the compounds was used. Then, 10^−4 dilution of an overnight bacterial culture in 100 μL of medium was added to each well, with the exception of the medium control wells. Minimum inhibitory concentration (MIC) values of compounds were determined according to our previous work.

[5] = system: E. faecalis ATCC 29212; experiment: MIC determination; type: cell-based, Enterococcus faecalis; details: Gram-positive E. faecalis ATCC 29212; Mueller Hinton Broth
Protocol: as §2

[6] = direct redox reaction of the Cu(II) complexes with ascorbic acid (UV–vis, anaerobic); type: physicochemical; details: Cu(II) complex 25 µM, 50 equiv. ascorbic acid, pH 7.4, 30% (v/v) DMSO/H2O
Protocol: as §1

[7] = system: DU-145; experiment: MTT cytotoxicity assay; type: cell-based, human; details: DU-145, MTT; for IC50: 24 h incubation time
Protocol: (§3) To test the biological effects of the Cu(II) complexes and the ligands on human cancer cells, DU-145 prostate, A549 lung, and MCF-7 breast adenocarcinoma cells, as well as the multidrug-resistant MCF-7 KCR breast cancer cells were utilized. All the cell lines were maintained in RPMI-1640 media (Biosera, Nuaille, France) complemented with 10% fetal bovine serum (FBS), 2 mM L-glutamine, 0.01% streptomycin and 0.005% penicillin, (Biosera, Nuaille, France) and were cultured under standard conditions in a 37 °C incubator at 5% CO2 and 95% humidity. The cell lines were originally obtained from ATCC.
(§4) The effect of the complexes and of their ligands alone on the viability (on the metabolic activity) of human cancer cells was assessed by MTT assay. The tested compounds were dissolved in 90% (v/v) DMSO/H2O at 10 mM concentration. Equimolar solutions of the ligand CuCl2 salt were used for the cytotoxicity assays. The metal salts without ligands were also tested. For this, 1 × 10^4 cells/well were seeded into 96-well plates and left to grow overnight. On the following day, cells were exposed to increasing concentrations of each compound (0; 2.5; 5; 10; 15; 20 µM). After a 24 h incubation, cells were washed with PBS buffer and then incubated with 0.5 mg/mL MTT (Sigma-Aldrich, St Louis, Missouri, MO, USA) for 1 h at 37 °C. The formazan crystals were solubilized in DMSO (Molar Chemicals, Halásztelek, Hungary), and the absorbance of samples was determined at 570 nm using a Synergy HTX plate reader (BioTek, Winooski, Vermont, VT, USA). Absorption corresponding to the untreated control samples was considered as 100%.

[8] = system: MCF-7; experiment: MTT cytotoxicity assay; type: cell-based, human; details: MCF-7, MTT; for IC50: 24 h incubation time
Protocol: as §3, §4

[9] = system: A549; experiment: MTT cytotoxicity assay; type: cell-based, human; details: for IC50: 24 h incubation time
Protocol: as §3, §4

[10] = system: MCF-7 KCR; experiment: MTT cytotoxicity assay; type: cell-based, human; details: for IC50: 24 h incubation time
Protocol: as §3, §4

[11] = system: MCF-7 KCR cells; experiment: DCFDA staining (intracellular ROS); type: cell-based, human; details: 20 µM, 6 h
Protocol: (§5) DCFDA staining assay was performed to measure the total intracellular ROS level upon treatments. For this, 1 × 10^5 cells/well were seeded onto coverslips (VWR International, Radnor, Pennsylvania, PA, USA) placed in 24-well plates and left to grow. […] After treatments, cells were washed with PBS then incubated for 1 h with 10 μM DCFDA solution. The fluorescence intensity of the samples was assessed by an OLYMPUS BX51 microscope with Olympus DP70 camera and was quantified using ImageJ software.

[12] = system: A549 cells; experiment: DCFDA staining (intracellular ROS); type: cell-based, human; details: A549, 20 µM, 6 h
Protocol: as §5

[13] = system: DU-145 cells; experiment: DCFDA staining (intracellular ROS); type: cell-based, human; details: DU-145, 20 µM, 6 h
Protocol: as §5

[14] = system: A549, MCF-7, MCF-7 KCR and DU-145 cells; experiment: γH2AX immunostaining (DNA double-strand breaks); type: cell-based, human; details: 20 µM, 3 h
Protocol: In order to determine the degree of DNA damage induced by the treatments, DNA double-strand breaks were visualized by γH2AX immunostaining. For this, 1 × 10^5 cells/well were seeded onto coverslips in 24-well plates. […] Then, cells were fixed with 4% formaldehyde (Molar Chemicals, Halásztelek, Hungary), permeabilized with 0.3% Triton-X-100 (Calbiochem, Merck Millipore, Darmstadt, Germany) and were blocked using 5% bovine serum albumin (BSA) (Sigma-Aldrich, St. Louis, MO, USA). Then, the samples were incubated with anti-γH2AX antibody (Thermo Fisher Scientific, Waltham, MA, USA) in 1:300 dilution followed by Alexa 488 fluorophore-conjugated goat anti-mouse secondary antibody (Abcam, Cambridge, UK) in 1:600 dilution. The fluorescence intensity of the stained samples was detected by an Olympus FV10i confocal microscope.

[15] = system: MCF-7 breast cancer cell line; set-up: method as in doi:10.1039/D0NJ01070G, PMID 34453218, PMID 33951554; details: cited from earlier work
[16] = Cu(II) complex (25 µM) with GSH (1.25 mM), pH 7.4, anaerobic; cited from earlier work
[17] = type: physicochemical; details: cligand = 20 µM
Protocol: An Orion 710A pH-meter equipped with a Metrohm combined electrode (type 6.0234.100) and a Metrohm 665 Dosimat burette were used for the UV–vis titrations at 25.0 ± 0.1 °C. Ionic strength of 0.10 M (KCl) was used to keep the activity coefficients constant. The titrations were performed with carbonate-free KOH solution of known concentration (0.10 M) with 30% (v/v) DMSO content. […] The average water ionization constant (pKw) is 14.54 ± 0.05 in the 30% (v/v) DMSO/H2O mixture. Argon was always passed over the solutions during the titrations. An Agilent Cary 8454 diode array spectrophotometer was used to record the UV–vis spectra at an interval of 200–800 nm. The path length was 2 cm. Spectrophotometric titrations were performed using a 0.1 M KOH titrant solution with 30% (v/v) DMSO on samples with 30% (v/v) DMSO containing HCl, KCl and the ligand at 20 μM concentration in the pH range 2.0–12.5 in the absence or in the presence of 1 or 0.5 equiv. Cu(II) ions. Proton dissociation constants (Ka) of the TSC ligands, the overall stability constants (β) of the Cu(II) complexes and the UV–vis spectra of the individual species were calculated by the computer program PSEQUAD [41] as was done in our previous works.

[18] = cited from earlier work
[19] = 30% (v/v) DMSO/H2O, T = 25.0 °C, I = 0.1 M (KCl)

Structure (SMILES) | % Scavenging Effect [1] [%] | IC50 [1] [µM] | formal potential E’ vs. Ag/AgCl/3M KCl [3] | MIC [4] [µM] | MIC [5] [µM] | IC50 [7] [µM] | IC50 [8] [µM] | IC50 [9] [µM] | IC50 [10] [µM] | TEAC (Trolox equivalent antioxidant capacity) [1] | DNA double-strand breaks (γH2AX) vs untreated control cells [14] | other results
C[C@]12CC[C@@H]3c4cc(/C=N/N=C(N)[O-])c([O-])cc4CC[C@H]3[C@@H]1CC[C@@H]2O.O.[Cu+2] [Cu(II)-estradiol-SC] | 8.5 | > 50 | +0.10 V | 50 | >100 | > 20 | > 20 | > 20 | > 20 | – | – | kobs [2]: rapid reduction of Cu(II); reduction by ascorbic acid (in words) [6]: remarkable spectral changes; effect on cell viability (in words) ([7]; up to 20 µM, 24 h): neither the estradiol-SC nor the Cu(II)-estradiol-SC complex exhibit any harmful effect; effect on cell viability (in words) ([8]; up to 20 µM, 24 h): neither the estradiol-SC nor the Cu(II)-estradiol-SC complex exhibit any harmful effect; effect on cell viability (in words) ([9]; up to 20 µM, 24 h): only slightly toxic; effect on cell viability (in words) ([10]; up to 20 µM, 24 h): only slightly toxic
C[C@]12CC[C@@H]3c4cc(/C=N/N=C(N)[S-])c([O-])cc4CC[C@H]3[C@@H]1CC[C@@H]2O.O.[Cu+2] [Cu(II)-estradiol-TSC] | 90.8 | 15.7 | +0.31 V | 3.125 | 12.5 | > 20 | 8.4 ± 1.11 | 10 ± 1.04 | 13 ± 1.09 | 0.8 | None of these treatments caused a higher degree of DNA damage | intracellular amount of ROS vs DMSO control [11]: significantly increased; intracellular amount of ROS vs DMSO control [12]: significantly increased; intracellular amount of ROS vs DMSO control [13]: significantly increased
CC12CCC3c4cc(C=NNC(N)=S)c(O)cc4CCC3C1CCC2=O (stereo not shown) [estrone-TSC, reference compound] | 49.8 | 17.8 | – | >100 | >100 | > 20 | > 20 | 16.7 ± 1.03 | > 20 | 0.7 | None of these treatments caused a higher degree of DNA damage | IC50 [15]: 6.4 µM; kobs [16]: 0.13 ^3 min^−1; pCu5.0 ([17]; calculated at pH 5.0, cCu(II) = 20 µM): 7.7; pCu6.0 ([17]; estimated at pH 6.0, cCu(II) = 20 µM): 9.2; logβ [CuLH−1] [18, 19]: 9.44 ^2; logβ [CuL]+ [18, 19]: 13.18 ^2; pCu7.4 ([18]; pH 7.4, cCu(II) = 20 µM, cligand = 20 µM): 11.9 ^2
